Results: ChEMBL document CHEMBL3585290, “Synthesis and biological evaluation of novel bivalent -carbolines as potential antitumor agents” (Medchemcomm, 2014)

Experiments:
[1] = test system: Lewis lung carcinoma cell line; assay: Antitumor activity against mouse LLC cells implanted in mouse assessed as tumor growth inhibition at 212.1 umol/kg, ip qd administered for 7 days starting 24 hrs post tumor implantation measured after day 21 relative to control; assay type: functional; conditions: read-out: TGI
KB = assay: Cytotoxicity against human KB cells after 48 hrs by MTT assay; assay type: functional, cell-based
769-P = assay: Cytotoxicity against human 769-P cells after 48 hrs by MTT assay; assay type: functional, cell-based
A-375 = assay: Cytotoxicity against human A375 cells after 48 hrs by MTT assay; assay type: functional, cell-based; conditions: A-375, 48 h
[2] = Cytotoxicity against human BGC823 cells after 48 hrs by MTT assay; assay type: functional, cell-based; conditions: BGC-823, 48 h
CT26 [3] = assay: Antitumor activity against mouse CT26 cells implanted in mouse assessed as tumor growth inhibition at 212.1 umol/kg, ip qd administered for 7 days starting 24 hrs post tumor implantation measured after day 21 relative to control; assay type: functional; conditions: read-out: TGI
SK-OV-3 = assay: Cytotoxicity against human SKOV3 cells after 48 hrs by MTT assay; assay type: functional, cell-based; conditions: SK-OV-3, 48 h
[4] = Acute toxicity in ip dosed C57BL/6 mouse measured for 14 days; assay type: organism-based; conditions: in vivo
[5] = test system: Lewis lung carcinoma cell line; assay: animal or person; conditions: Mus musculus, ip, read-out: TGI
Description: Antitumor activity against mouse LLC cells implanted in mouse assessed as tumor growth inhibition at 114.9 umol/kg, ip qd administered for 7 days starting 24 hrs post tumor implantation measured after day 21 relative to control

CT26 [6] = assay: animal or person; conditions: Mus musculus, CT26, ip, read-out: TGI
Description: Antitumor activity against mouse CT26 cells implanted in mouse assessed as tumor growth inhibition at 114.9 umol/kg, ip qd administered for 7 days starting 24 hrs post tumor implantation measured after day 21 relative to control

O=C(O)c1cc2c3ccccc3n(CCCc3ccccc3)c2cn1
inhibition in vivo at 212.1 µmol/kg [1]: 40.3% | IC50 (KB): 86.4 µM | IC50 (769-P): 56.8 µM | IC50 (A-375): 67.6 µM | IC50 [2]: 36.7 µM | inhibition in vivo at 212.1 µmol/kg (CT26 [3]): 20.3% | IC50 (SK-OV-3): > 200 µM | LD50 at 336 h [4]: 1090 µmol/kg

O=P1(N(CCCl)CCCl)NCCCO1 (stereo not given) [CYCLOPHOSPHAMIDE ANHYDROUS]
inhibition in vivo at 114.9 µmol/kg [5]: 88.1% | inhibition in vivo at 114.9 µmol/kg (CT26 [6]): 87.6%
